Test results from PubChem BioAssay AID2060887 (Molecular Pharmacology Branch, DTP, NCI, 2025).

System: 782815-120-R-J1-PDC complex spheroid viability
Assay: Anticancer human tumor 782815-120-R-J1-PDC patient-derived colon adenocarcinoma cell line growth inhibition [RAS]
Settings: for IC50: curve of first compound; for viability, T/C: stronger effect = lower value
In short: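 Tumour cells grown as complex spheroids with HUVEC endothelial cells and mesenchymal stem cells, treated with RAS pathway inhibitor combinations. Each agent spans half-log steps from near clinical Cmax, or 10 microM where Cmax is unknown.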

[1] = second compound 0.000949 µM, first compound 0.000949 µM
[2] = second compound 0.000949 µM, first compound 0.003 µM
[3] = second compound 0.000949 µM, first compound 0.00949 µM
[4] = second compound 0.000949 µM, first compound 0.03 µM
[5] = second compound 0.000949 µM, first compound 0.0949 µM
[6] = second compound 0.000949 µM, first compound 0.3 µM
[7] = second compound 0.003 µM, first compound 0.000949 µM
[8] = second compound 0.003 µM, first compound 0.003 µM
[9] = second compound 0.003 µM, first compound 0.00949 µM
[10] = second compound 0.003 µM, first compound 0.03 µM
[11] = second compound 0.003 µM, first compound 0.0949 µM
[12] = second compound 0.003 µM, first compound 0.3 µM
[13] = second compound 0.00949 µM, first compound 0.000949 µM
[14] = second compound 0.00949 µM, first compound 0.003 µM
[15] = second compound 0.00949 µM, first compound 0.00949 µM
[16] = second compound 0.00949 µM, first compound 0.03 µM
[17] = second compound 0.00949 µM, first compound 0.0949 µM
[18] = second compound 0.00949 µM, first compound 0.3 µM
[19] = second compound 0.03 µM, first compound 0.000949 µM
[20] = second compound 0.03 µM, first compound 0.003 µM
[21] = second compound 0.03 µM, first compound 0.00949 µM
[22] = second compound 0.03 µM, first compound 0.03 µM
[23] = second compound 0.03 µM, first compound 0.0949 µM
[24] = second compound 0.03 µM, first compound 0.3 µM
[25] = second compound 0.0949 µM, first compound 0.000949 µM
[26] = second compound 0.0949 µM, first compound 0.003 µM
[27] = second compound 0.0949 µM, first compound 0.00949 µM
[28] = second compound 0.0949 µM, first compound 0.03 µM
[29] = second compound 0.0949 µM, first compound 0.0949 µM
[30] = second compound 0.0949 µM, first compound 0.3 µM
[31] = second compound 0.3 µM, first compound 0.000949 µM
[32] = second compound 0.3 µM, first compound 0.003 µM
[33] = second compound 0.3 µM, first compound 0.00949 µM
[34] = second compound 0.3 µM, first compound 0.03 µM
[35] = second compound 0.3 µM, first compound 0.0949 µM
[36] = second compound 0.3 µM, first compound 0.3 µM
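Also: spheroids exposed to compounds for 7 days before reading.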
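For viability, T/C in this document: 100% = DMSO vehicle control viability.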

C=CC(=O)N1CCN(c2nc(OCC3CCCN3C)nc3c(F)c(-c4nc(N)cc(C)c4C(F)(F)F)c(Cl)cc23)C(C)C1 (stereo unspecified) + CCn1c(-c2cccnc2C(C)OC)c2c3cc(ccc31)N1CCOC(CC(NC(=O)C(C(C)C)N(C)C(=O)C3(F)CCN(C(=O)C#CC(C)(C)N(C)C)CC3)C(=O)N3CCCC(N3)C(=O)OCC(C)(C)C2)C1
IC50 (second compound 0.000949 µM): > 1000 nM | IC50 (second compound 0.003 µM): > 1000 nM | IC50 (second compound 0.00949 µM): > 1000 nM | IC50 (second compound 0.03 µM): > 1000 nM | IC50 (second compound 0.0949 µM): > 1000 nM | IC50 (second compound 0.3 µM): > 1000 nM | viability, T/C (second compound 0.000949 µM, first compound 0.00316 µM): 95.1% | viability, T/C (second compound 0.000949 µM, first compound 0.01 µM): 96% | viability, T/C (second compound 0.000949 µM, first compound 0.0316 µM): 101% | viability, T/C (second compound 0.000949 µM, first compound 0.1 µM): 83.2% | viability, T/C (second compound 0.000949 µM, first compound 0.316 µM): 94.4% | viability, T/C (second compound 0.000949 µM, first compound 1 µM): 94.5% | viability, T/C (second compound 0.003 µM, first compound 0.00316 µM): 91.3% | viability, T/C (second compound 0.003 µM, first compound 0.01 µM): 97% | viability, T/C (second compound 0.003 µM, first compound 0.0316 µM): 101% | viability, T/C (second compound 0.003 µM, first compound 0.1 µM): 94.8% | viability, T/C (second compound 0.003 µM, first compound 0.316 µM): 93.3% | viability, T/C (second compound 0.003 µM, first compound 1 µM): 94.7% | viability, T/C (second compound 0.00949 µM, first compound 0.00316 µM): 87.2% | viability, T/C (second compound 0.00949 µM, first compound 0.01 µM): 97.2% | viability, T/C (second compound 0.00949 µM, first compound 0.0316 µM): 89.4% | viability, T/C (second compound 0.00949 µM, first compound 0.1 µM): 95.6% | viability, T/C (second compound 0.00949 µM, first compound 0.316 µM): 92.9% | viability, T/C (second compound 0.00949 µM, first compound 1 µM): 99.1% | viability, T/C (second compound 0.03 µM, first compound 0.00316 µM): 86.8% | viability, T/C (second compound 0.03 µM, first compound 0.01 µM): 95% | viability, T/C (second compound 0.03 µM, first compound 0.0316 µM): 87% | viability, T/C (second compound 0.03 µM, first compound 0.1 µM): 99.4% | viability, T/C (second compound 0.03 µM, first compound 0.316 µM): 94.4% | viability, T/C (second compound 0.03 µM, first compound 1 µM): 92.1% | viability, T/C (second compound 0.0949 µM, first compound 0.00316 µM): 86.8% | viability, T/C (second compound 0.0949 µM, first compound 0.01 µM): 105% | viability, T/C (second compound 0.0949 µM, first compound 0.0316 µM): 99% | viability, T/C (second compound 0.0949 µM, first compound 0.1 µM): 101% | viability, T/C (second compound 0.0949 µM, first compound 0.316 µM): 101% | viability, T/C (second compound 0.0949 µM, first compound 1 µM): 96.4% | viability, T/C (second compound 0.3 µM, first compound 0.00316 µM): 93.4% | viability, T/C (second compound 0.3 µM, first compound 0.01 µM): 84.3% | viability, T/C (second compound 0.3 µM, first compound 0.0316 µM): 97.5% | viability, T/C (second compound 0.3 µM, first compound 0.1 µM): 91.2% | viability, T/C (second compound 0.3 µM, first compound 0.316 µM): 89.3% | viability, T/C (second compound 0.3 µM, first compound 1 µM): 87.4%

CC1(C)CCC(Nc2ncc(C(F)(F)F)c(-c3c[nH]c4c(P(C)(C)=O)c(C#N)ccc34)n2)CN1 (stereo unspecified) + CCn1c(-c2cccnc2C(C)OC)c2c3cc(ccc31)N1CCOC(CC(NC(=O)C(C(C)C)N(C)C(=O)C3(F)CCN(C(=O)C#CC(C)(C)N(C)C)CC3)C(=O)N3CCCC(N3)C(=O)OCC(C)(C)C2)C1
IC50 (second compound 0.000949 µM): 42.5 nM | IC50 (second compound 0.003 µM): 43.5 nM | IC50 (second compound 0.00949 µM): 67.2 nM | IC50 (second compound 0.03 µM): 56.3 nM | IC50 (second compound 0.0949 µM): 62.4 nM | IC50 (second compound 0.3 µM): 30.1 nM | viability, T/C [1]: 105% | viability, T/C [2]: 93.1% | viability, T/C [3]: 68.5% | viability, T/C [4]: 51% | viability, T/C [5]: 49.8% | viability, T/C [6]: 41.2% | viability, T/C [7]: 91.5% | viability, T/C [8]: 89.2% | viability, T/C [9]: 81.8% | viability, T/C [10]: 52.1% | viability, T/C [11]: 45.8% | viability, T/C [12]: 44.3% | viability, T/C [13]: 90.5% | viability, T/C [14]: 93.7% | viability, T/C [15]: 83.2% | viability, T/C [16]: 54.1% | viability, T/C [17]: 51.6% | viability, T/C [18]: 44.6% | viability, T/C [19]: 86.1% | viability, T/C [20]: 88.8% | viability, T/C [21]: 78.4% | viability, T/C [22]: 54.9% | viability, T/C [23]: 44.1% | viability, T/C [24]: 47.6% | viability, T/C [25]: 107% | viability, T/C [26]: 83.6% | viability, T/C [27]: 70.3% | viability, T/C [28]: 56.8% | viability, T/C [29]: 45.5% | viability, T/C [30]: 39.9% | viability, T/C [31]: 83.9% | viability, T/C [32]: 86.6% | viability, T/C [33]: 65% | viability, T/C [34]: 52.2% | viability, T/C [35]: 39.4% | viability, T/C [36]: 36.3%

CCc1c2c(nc3ccc(O)cc13)-c1cc3c(c(=O)n1C2)COC(=O)[C@]3(O)CC + CCn1c(-c2cccnc2C(C)OC)c2c3cc(ccc31)N1CCOC(CC(NC(=O)C(C(C)C)N(C)C(=O)C3(F)CCN(C(=O)C#CC(C)(C)N(C)C)CC3)C(=O)N3CCCC(N3)C(=O)OCC(C)(C)C2)C1
IC50 (second compound 0.000949 µM): 3.67 nM | IC50 (second compound 0.003 µM): 3.95 nM | IC50 (second compound 0.00949 µM): 3.98 nM | IC50 (second compound 0.03 µM): 2.91 nM | IC50 (second compound 0.0949 µM): 3.69 nM | IC50 (second compound 0.3 µM): 3.26 nM | viability, T/C [1]: 84% | viability, T/C [2]: 56.1% | viability, T/C [3]: 22.1% | viability, T/C [4]: 8.78% | viability, T/C [5]: 2.94% | viability, T/C [6]: 1.62% | viability, T/C [7]: 89.9% | viability, T/C [8]: 59.1% | viability, T/C [9]: 21.3% | viability, T/C [10]: 9.28% | viability, T/C [11]: 4.83% | viability, T/C [12]: 1.63% | viability, T/C [13]: 86.5% | viability, T/C [14]: 59.2% | viability, T/C [15]: 22.6% | viability, T/C [16]: 11.7% | viability, T/C [17]: 3.57% | viability, T/C [18]: 1.64% | viability, T/C [19]: 91.9% | viability, T/C [20]: 49.3% | viability, T/C [21]: 19% | viability, T/C [22]: 10.1% | viability, T/C [23]: 4.83% | viability, T/C [24]: 1.53% | viability, T/C [25]: 82.5% | viability, T/C [26]: 57% | viability, T/C [27]: 18.8% | viability, T/C [28]: 8.68% | viability, T/C [29]: 5.21% | viability, T/C [30]: 1.73% | viability, T/C [31]: 86.1% | viability, T/C [32]: 53% | viability, T/C [33]: 15.4% | viability, T/C [34]: 8.17% | viability, T/C [35]: 2.87% | viability, T/C [36]: 1.16%
